Assay results published in ChEMBL document CHEMBL1150977, “A quantitative analysis of kinase inhibitor selectivity” (Nat Biotechnol, 2008).

Assays:
[1] = biological target: Ribosomal protein S6 kinase alpha-5 (Homo sapiens, UniProt O75582)
[2] = biological target: Cyclin-dependent kinase 5 (Homo sapiens, UniProt Q00535)
[3] = biological target: Casein kinase I isoform delta (Homo sapiens, UniProt P48730)
[4] = biological target: ALK tyrosine kinase receptor (Homo sapiens, UniProt Q9UM73)
[5] = biological target: RAC-alpha serine/threonine-protein kinase (Homo sapiens, UniProt P31749)
[6] = biological target: Cyclin-dependent kinase 8 (Homo sapiens, UniProt P49336)
[7] = biological target: T1, Testis-specific serine/threonine-protein kinase 1 (Homo sapiens, UniProt Q9BXA7)
T1 sequence (Q9BXA7 whole entry): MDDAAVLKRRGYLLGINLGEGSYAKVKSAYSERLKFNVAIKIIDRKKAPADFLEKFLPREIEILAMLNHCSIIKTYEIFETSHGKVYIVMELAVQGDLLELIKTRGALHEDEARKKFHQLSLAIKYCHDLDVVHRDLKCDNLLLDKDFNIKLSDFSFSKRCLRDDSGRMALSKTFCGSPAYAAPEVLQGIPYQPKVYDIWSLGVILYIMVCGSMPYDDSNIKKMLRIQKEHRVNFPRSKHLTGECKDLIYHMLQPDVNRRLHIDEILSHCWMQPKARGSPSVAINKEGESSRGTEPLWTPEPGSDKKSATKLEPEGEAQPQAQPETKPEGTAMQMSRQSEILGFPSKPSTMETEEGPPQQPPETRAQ

[8] = biological target: Mitogen-activated protein kinase kinase kinase 10 (Homo sapiens, UniProt Q02779)
[9] = biological target: T2, Serine/threonine-protein kinase LATS1 (Homo sapiens, UniProt O95835)
T2 sequence (O95835 whole entry): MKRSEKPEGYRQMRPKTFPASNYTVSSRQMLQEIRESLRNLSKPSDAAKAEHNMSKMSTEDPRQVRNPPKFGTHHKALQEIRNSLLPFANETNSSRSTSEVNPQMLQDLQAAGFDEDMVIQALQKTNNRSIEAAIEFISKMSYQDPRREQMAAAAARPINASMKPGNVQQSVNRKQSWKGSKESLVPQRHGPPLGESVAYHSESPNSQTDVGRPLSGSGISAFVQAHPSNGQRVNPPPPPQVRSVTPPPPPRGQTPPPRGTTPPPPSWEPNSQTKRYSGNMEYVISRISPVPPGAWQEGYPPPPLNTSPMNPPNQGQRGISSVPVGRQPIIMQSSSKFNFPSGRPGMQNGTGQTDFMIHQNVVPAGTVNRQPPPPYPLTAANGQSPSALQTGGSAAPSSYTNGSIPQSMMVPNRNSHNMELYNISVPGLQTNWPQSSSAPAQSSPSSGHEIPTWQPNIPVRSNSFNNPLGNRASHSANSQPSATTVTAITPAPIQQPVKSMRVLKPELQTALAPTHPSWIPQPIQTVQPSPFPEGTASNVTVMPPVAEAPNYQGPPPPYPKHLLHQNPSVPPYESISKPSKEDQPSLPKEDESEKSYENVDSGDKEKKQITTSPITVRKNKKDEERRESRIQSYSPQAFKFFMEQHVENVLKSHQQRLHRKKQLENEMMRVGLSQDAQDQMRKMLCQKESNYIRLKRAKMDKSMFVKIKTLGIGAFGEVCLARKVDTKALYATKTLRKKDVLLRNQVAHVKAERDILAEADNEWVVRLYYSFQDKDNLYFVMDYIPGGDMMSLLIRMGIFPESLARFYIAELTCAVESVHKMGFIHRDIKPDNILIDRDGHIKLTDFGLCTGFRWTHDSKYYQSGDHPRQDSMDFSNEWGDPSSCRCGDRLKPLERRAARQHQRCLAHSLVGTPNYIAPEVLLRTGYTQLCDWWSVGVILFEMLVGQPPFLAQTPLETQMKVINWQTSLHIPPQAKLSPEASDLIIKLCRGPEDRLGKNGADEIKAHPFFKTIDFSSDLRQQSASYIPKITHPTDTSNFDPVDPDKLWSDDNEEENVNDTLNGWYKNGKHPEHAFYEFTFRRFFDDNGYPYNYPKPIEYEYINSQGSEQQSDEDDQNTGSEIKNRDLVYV

[10] = biological target: Mitogen-activated protein kinase 6 (Homo sapiens, UniProt Q16659)
[11] = biological target: Myosin light chain kinase 2, skeletal/cardiac muscle (Homo sapiens, UniProt Q9H1R3)
[12] = biological target: Proto-oncogene tyrosine-protein kinase Src (Homo sapiens, UniProt P12931)
[13] = biological target: Serine/threonine-protein kinase PAK 1 (Homo sapiens, UniProt Q13153)
[14] = biological target: T3, Serine/threonine-protein kinase Nek2 (Homo sapiens, UniProt P51955)
T3 sequence (P51955 whole entry): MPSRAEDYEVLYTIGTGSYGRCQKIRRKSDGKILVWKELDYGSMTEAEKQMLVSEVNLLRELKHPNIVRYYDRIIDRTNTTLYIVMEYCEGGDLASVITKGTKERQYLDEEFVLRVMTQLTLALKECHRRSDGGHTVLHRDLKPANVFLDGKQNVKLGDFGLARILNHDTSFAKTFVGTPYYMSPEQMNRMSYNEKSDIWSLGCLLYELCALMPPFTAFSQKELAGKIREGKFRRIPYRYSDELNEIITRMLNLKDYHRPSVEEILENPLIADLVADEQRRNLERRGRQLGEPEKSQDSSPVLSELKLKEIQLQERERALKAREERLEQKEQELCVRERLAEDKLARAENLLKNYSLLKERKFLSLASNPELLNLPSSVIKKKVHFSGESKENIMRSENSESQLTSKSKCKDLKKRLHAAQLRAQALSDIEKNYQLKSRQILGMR

Row | Structure (SMILES) | Kd [1] | Kd [2] | Kd [3] | Kd [4] | Kd [5] | Kd [6] | Kd [7] | Kd [8] | Kd [9] | Kd [10] | Kd [11] | Kd [12] | Kd [13] | Kd [14]
1 | CCOc1cc2ncc(C#N)c(Nc3ccc(F)c(Cl)c3)c2cc1NC(=O)/C=C/CN(C)C [PELITINIB] | > 10 µM | > 10 µM | 1.1 µM | 7.1 µM | > 10 µM | > 10 µM | > 10 µM | > 10 µM | > 10 µM | > 10 µM |  |  |  | 
2 | COCC(=O)NC/C=C/c1ccc2ncnc(Nc3ccc(Oc4ccc(C)nc4)c(C)c3)c2c1 [CP-724714] | > 10 µM | > 10 µM | > 10 µM | > 10 µM | > 10 µM |  | > 10 µM | > 10 µM | > 10 µM | > 10 µM | > 10 µM | > 10 µM | > 10 µM | > 10 µM
3 | NC(=O)c1ccc(-c2nc(-c3ccc4c(c3)OCO4)c(-c3ccccn3)[nH]2)cc1 [SB-431542] | > 10 µM | > 10 µM |  | > 10 µM | > 10 µM | > 10 µM | > 10 µM | > 10 µM | > 10 µM | > 10 µM | > 10 µM | > 10 µM | > 10 µM | > 10 µM
4 | Nc1nc(Nc2ccc(S(N)(=O)=O)cc2)nn1C(=O)c1c(F)cccc1F [JNJ-7706621] | > 10 µM |  | > 10 µM |  | > 10 µM |  | > 10 µM |  | > 10 µM |  | > 10 µM | > 10 µM | > 10 µM | 
5 | Oc1ccc(-c2nc(-c3ccncc3)c(-c3ccc(F)cc3)[nH]2)cc1 [SB-202190] | > 10 µM | > 10 µM |  | > 10 µM | > 10 µM | > 10 µM | > 10 µM | > 10 µM | > 10 µM | > 10 µM | > 10 µM | > 10 µM | > 10 µM | > 10 µM
6 | CCN1CCN(Cc2ccc(NC(=O)Nc3ccc(Oc4cc(NC)ncn4)cc3)cc2C(F)(F)F)CC1 [AST-487] |  | 1 µM |  |  |  |  |  |  |  |  |  |  |  | 
